Measured values reported in US4444776A, “Dipyrido (4,3-B) (3,4-F) indoles, process for obtaining them, therapeutical use and pharmaceutical compositions” (priority 1977, dated 1984).
Like-named read-outs stand apart in the source and are kept apart here.

How the values were obtained:
[1] = Test 4: toxicity on new-born mice, IP; type: in vivo, mouse; settings: mouse, in vivo, read-out: dead mice (converted)
From the text: (§1) Test 4: Investigation of the toxicity
(§2) The toxic dose has been sought, on adult ([…]×DBA/2) Fl mice and on new-born mice, of the compounds of the invention by injection by the IP route. The results obtained are given hereinafter:
(§3) 2-On new-born mice (IP route)

new-born mice = assay: Test 4: toxicity on new-born mice, IP; type: in vivo, mouse
From the text: as §1, §2, §3

L 1210 leukemia = assay: Test 1: antitumoral properties on L 1210 leukemia (Table I); type: in vivo, mouse; settings: 0.1 mg/mouse (5 mg/kg), J+1
Experimental: The lower animal antitumoral properties of the compounds according to the invention have been determined by their curative action on inoculated test L-1210 leukemia. [ZUBROD C. G., Proc. Nat. Acad. Sci. 1972, 69, 1042-1047 and SCHEPARTZ SA. SCREENING, 1971, CANCER Chemother. Rep. Part 3 vol.2 p.3].
This leukemia is maintained in ascitic form by passage (i.p. route) on CBDl (C57 B16×DBA/2)F1 mice. The preparation to be tested are injected by the intraperitoneal route at least one day after the inoculation of the cells (one injection only). The results are expressed in increased life span per cent (ILS %) according to KESSEL et al. Cancer Res. 1971, 31, 1883-1887) or in percentage of the number of cells killed by the product (the survival of the animals is proportional to the number of cells injected).
The following tests were made in groups of 10 mice, unless stipulated to the contrary.
Test 1: Study of the antitumoral properties of the compounds of the invention on L 1210 leukemia
The lower animal antitumoral properties of the compounds according to the invention were determined by their curative action on test inoculated L 1210 leukemia.
This leukemia was maintained on CBD 1 (C 57 B 16×DBA/2) F1 mice. The compounds to be tested were injected by the IP route one or more days after the inoculation of the cells (single injection). The results obtained, shown in table I hereinafter, are expressed in percentage of increase of life span (ILS %) and in percentage of the number of cells killed by the compound to be tested, the survival of the animals being proportional to the number of cells injected.
The percentage of the like span ILS % (Cancer. Res. 1971, 31, 1883-1887) is the following ratio: [formula] S^t =survival of the treated animals S^c =survival of the control animals

[2] = system: Moloney virus / viro-induced Moloney sarcoma; assay: Test 3: development of the viro-induced Moloney sarcoma; type: in vivo, new-born mice; settings: J+1
From the text: The study of the development of the MOLONEY viro-induced sarcoma (Nat. Cancer. Inst. Monograph 22, 139-142, 1966) has also made it possible to determine that the compounds according to the invention are antiviral and antitumoral agents in lower animals.
Test 3: Study of the development of the viro-induced Moloney sarcoma
The injection of Moloney virus [C. Jasmin et al. J. Nat. Cander Inst. 1974 53 469-474] by the intramuscular i.m. route into new-born mice led after 10 days to the formation of a sarcoma. The appearance of the tumour was proportional to the dose of virus injected. The viral inoculum was constituted by a tumor homogenate diluted to 1/250, this corresponding to 10 TID 50, i.e. to the dose of virus inducing the appearance of a tumour in 50% of the animals infected. At this dose, 80 to 100% of the animals developed a tumour, and 100% of the survivors became leukemic. The experiment thus consisted in noting the number of mice presenting tumours, the regression, or not, of these tumours and finally in sacrificing the surviving animals after 2 months and in noting the presence or absence of splenomegaly (evidence of a leukemia). The virus was inoculated into new-born mice of 3 to 5 days by the IM route, and the mice received the following day (J+1) or five hours after injection (JO+5 hours) the product to be tested by the IP route.

L1210 leukemia = assay: Test 16: structure-activity of R'1 substitution, L1210 (Table XII); type: in vivo, mouse (C57B16xDBA/2)F1; design: MST: unit not given here
Experimental: Test 16: Relationship between structure and activity of various dipyrido indoles differing by the R'1 substitution.
L1210 leukemia has been maintained by weekly passages on (C57B16xDBA/2)F1 mice. On day 0, mice were inoculated by I.P. route with various numbers of L1210 ascitic tumor cells in volumes of 0.1 ml. Subsequently as indicated, drugs were administrated in Ca^++ and Mg^++ free PBS solutions (Gibco) or in Mac Coy's medium (Gibso or Microbiological Associates). […]

[3] = system: tumoral strain derived from the murine leukemia due to the C. FRIEND virus; assay: Test 7: antitumoral activity in vitro on Friend leukemia tumoral strain; type: cell-based; settings: HUM = 1
Experimental: Test 7: Study of the antitumoral activity in vitro
This activity was measured on a tumoral strain derived from the murine leukemia due to the C. FRIEND virus.
The tumoral cells multiply in suspension in a "RPMI 1640" medium (Catalogue of GIBCO Bio-cult. Ltd. Washington Road, Sandyford Industrial Estate, PAISLEY PA 3 4EP, Renfrewshire, Scotland) supplemented with 20% of embryonary calf serum, penicillin and streptomycine. The duplication time of these cells is 11 hours. The growth fraction is equal to 1 or very close to 1 (all the cells are in the cycle). The cultures are sub-culturedat time t=0 at the concentration of 2.10^5 cells per ml in Falcon dishes containing 4 ml of medium. After twenty four hours, the product to be tested was added, i.e. at a moment when the cultures are in exponential phase of growth. Twenty four hours after the addition of the product, the cells are counted and the percentage of living cells determined by an exclusion test using "trypan" blue.

[4] = 10^4 cells, 5 mg/kg, day +1, control MST 11.8

Cc1c2cc[n+](C)cc2c(C)c2c1[nH]c1ccc(O)cc12 [HUM, 2N--methyl-9-hydroxy-ellipticinium acetate, reference compound]
mortality ([1]; 5 μg: 2.5 mg/kg): 37.5% | mortality ([1]; 10 μg: 5 mg/kg): 37.5% | appearance of mice (new-born mice; 5 μg: 2.5 mg/kg): mice puny in appearance | appearance of mice (new-born mice; 10 μg: 5 mg/kg): mice puny in appearance | ILS % (L 1210 leukemia; 10^3 cells): 22.15% | Number of cells found (L 1210 leukemia; 10^3 cells): 60 | Number of cells killed (L 1210 leukemia; 10^3 cells): 94% | Surviving mice (L 1210 leukemia; 10^3 cells): 3/10 | ILS % (L 1210 leukemia; 10^4 cells, IP): 22.6% | Number of cells found (L 1210 leukemia; 10^4 cells): 400 | Number of cells killed (L 1210 leukemia; 10^4 cells): 96% | Surviving mice (L 1210 leukemia; 10^4 cells): 1/10 | animals survived ([2]; 1 μg/mouse (0.5 mg/kg)): 90% | mice presenting tumours ([2]; 1 μg/mouse (0.5 mg/kg)): 30% | mice with leukemia ([2]; 1 μg/mouse (0.5 mg/kg)): 33% | tumours regressed ([2]; 1 μg/mouse (0.5 mg/kg)): 90% | animals presenting a tumour ([2]; 5 μg/mouse (2.5 mg/kg)): 20% | mice leukemic ([2]; 5 μg/mouse (2.5 mg/kg)): 10% | tumour regression ([2]; 5 μg/mouse (2.5 mg/kg)): 100% | 60 days surv. (L1210 leukemia; 10^3 cells, 5 mg/kg, day +1): 3 | ILS % (L1210 leukemia; 10^3 cells, 5 mg/kg, day +1): 22.15% | MST (L1210 leukemia; 10^3 cells, 5 mg/kg, day +1): 16.86 | Range of death (L1210 leukemia; 10^3 cells, 5 mg/kg, day +1): 14-20 | ILS % (L1210 leukemia; [4]): 22.6% | MST (L1210 leukemia; [4]): 14.9 | Range of death (L1210 leukemia; [4]): 14-20

Cc1c2cc[n+](C)cc2c(C)c2c1[nH]c1cc[n+](C)cc12 [Example 2, 2,5,9,11-tetramethyl dipyrido [4,3-b][3,4-f] indolinium diacetate]
Activity (ratio of the LD50 of HUM to the LD50 of the product tested) [3]: 0.2 | 60 days surv. (L1210 leukemia; 10^4 cells, 20 mg/kg, day +4): 0 | ILS % (L1210 leukemia; 10^4 cells, 20 mg/kg, day +4): 0.9% | MST (L1210 leukemia; 10^4 cells, 20 mg/kg, day +4): 11.3 | Range of death (L1210 leukemia; 10^4 cells, 20 mg/kg, day +4): 10-17
